Laboratory results as given in patent US20230123334A1, “AMINO LIPID COMPOUND, PREPARATION METHOD THEREFOR, AND APPLICATION THEREOF” (SHENZHEN SHENXIN BIOTECHNOLOGY CO., LTD., priority 2020, published 2023).

The compounds below were run on HEK293 cells (assay: Preliminary screening as mRNA vectors, EGFP mRNA transfection of HEK293 cells). Conditions: EGFP mRNA 50 ng per well, 96-well plates; percentage of GFP fluorescent cells relative to total number of cells (Hoechst).
Format: cell-based
Experimental: Cell line: HEK293 cells (ATCC CRL-1573™)
Medium: DMEM supplemented with 10% fetal bovine serum (Invitrogen)
Screening: cell transfection on 96-well plates
Detection (readout): percentage of the number of GFP fluorescent cells relative to the total number of cells (the total number of cells was determined using nucleus dye Hoechst). Lipofectamine2000 (Invitrogen) was used as the positive control.
Method: the experimental method was basically the same with Example 4, and the mass of EGFP mRNA (TriLink) for transfection was 50 ng per well.

Structure (SMILES) | Absolute mRNA transfection efficiency in HEK293 cells
CCCCCCCCCCCCCCCNc1nc(NCCN2CCOCC2)nc(SCCCCCCCCCCCCCC)n1 [Compound D2S14N15] | 0.0%
CCCCCCCCCCCCCCCCSc1nc(NCCCCCCCCCCCCC)nc(NCCCN2CCN(C)CC2)n1 [Compound D9S16N13] | 1.4%
CCCCCCCCCCCCCCCCCCSc1nc(NCCCCCCCCCCCCC)nc(NCCCN(C)C)n1 [Compound D6S18N13] | 1.0%
CCCCCCCCCCCCCCCCCCNc1nc(NCCCN2CCOCC2)nc(SCCCCCCCCCCCCCC)n1 [Compound D8S14N18] | 0.3%
CCCCCCCCCCCCCCCSc1nc(NCCCCCCCCC)nc(NCC2CCN(C)CC2)n1 [Compound D10S15N9] | 12.8%
CCCCCCCCCCCCCNc1nc(NCC2CCN(C)CC2)nc(SCCCCCCCCCCCC)n1 [Compound D10S12N13] | 1.8%
CCCCCCCCCCCCCCCCCCNc1nc(NCCN2CCCCC2)nc(SCCCCCCCCCCCCCCC)n1 [Compound D4S15N18] | 5.1%
CCCCCCCCCCCCCCCCNc1nc(NCC2CCN(C)CC2)nc(SCCCCCC)n1 [Compound D10S6N16] | 41.5%
CCCCCCCCCCCCSc1nc(NCCCCCCCC)nc(NCCN2CCOCC2)n1 [Compound D2S12N8] | 1.6%
CCCCCCCSc1nc(NCC2CCN(C)CC2)nc(SCCCCCCC)n1 [Compound D10S7S7] | 19.3%
CCCCCCCCCSc1nc(NCCCCCCC)nc(NCCCN(C)C)n1 [Compound D6S9N7] | 1.2%
CCCCCCCNc1nc(NCCN2CCN(C)CC2)nc(SCCCCCCC)n1 [Compound D5S7N7] | 1.0%
CCCCCCCCCCCCCCCCSc1nc(NCCCCCC)nc(NCCN(CC)CC)n1 [Compound D7S16N6] | 16.5%
CCCCCCCCCCCCCCCCNc1nc(NCCCN2CCN(C)CC2)nc(SCCCCCCCCCCCCCC)n1 [Compound D9S14N16] | 0.8%
CCCCCCCCCCCCCCSc1nc(NCCCCCCCCCCCC)nc(NCCN(CC)CC)n1 [Compound D7S14N12] | 6.6%
CCCCCCCCNc1nc(NCCN2CCCC2)nc(SCCCCCCCC)n1 [Compound D3S8N8] | 3.0%
CCCCCCCCCCCCCNc1nc(NCCCN2CCOCC2)nc(SCCCCCCC)n1 [Compound D8S7N13] | 5.8%
CCCCCCCCCCCCCCSc1nc(NCCCCCCCCCCC)nc(NCCCN2CCN(C)CC2)n1 [Compound D9S14N11] | 15.6%
CCCCCCCCCCCCCCSc1nc(NCCCCCCCCCCCCC)nc(NCCN2CCN(C)CC2)n1 [Compound D5S14N13] | 12.9%
CCCCCCCCSc1nc(NCCCCCCC)nc(NCCCN2CCOCC2)n1 [Compound D8S8N7] | 0.1%
CCCCCCCCCCCCCCCCNc1nc(NCC2CCN(C)CC2)nc(SCCCCCCCCCCCCCCC)n1 [Compound D10S15N16] | 6.1%
CCCCCCCCCCCCCCCCCCSc1nc(NCCCCCCCC)nc(NCCN2CCOCC2)n1 [Compound D2S18N8] | 3.1%
CCCCCCCCCCCCCCCCCCNc1nc(NCCCN2CCOCC2)nc(SCCCCCCCCCCC)n1 [Compound D8S11N18] | 0.6%
CCCCCCCCCCCCNc1nc(NCCN2CCOCC2)nc(SCCCCCCCCCCC)n1 [Compound D2S11N12] | 3.1%
CCCCCCCCCCCCCCCNc1nc(NCCN(CC)CC)nc(SCCCCCC)n1 [Compound D7S6N15] | 2.2%
CCCCCCCCCCCCN(CCCCCCCCCCCC)c1nc(NCCCN2CCN(C)CC2)nc(SCCCCCCCCCCC)n1 [D9S11^2N12] | 0.0%
CCCCCCCCNc1nc(NCCN2CCCC2)nc(SCCCCCC)n1 [Compound D3S6N8] | 0.0%
